Experimental data as given in patent US9629786B2, “Monoterpene derivatives of chalcone or dihydrochalcone and their use as depigmenting agents” (PIERRE FABRE DERMO-COSMETIQUE, priority 2011, dated 2017).

Assays:
fungal tyrosinase = conditions: monophenoloxidase activity on fungal tyrosinase; cited from earlier work
plasmodial = conditions: cited from earlier work
cancer cell line (lung) = conditions: cited from earlier work
[1] = system: murine melanoma cell line B16-F10; assay: Inhibition of melanin synthesis, colorimetric assay on B16-F10; type: cell-based; conditions: Mus musculus, B16-F10 cells
Description: Pharmacological Testing: Inhibition of Melanin Synthesis:
We have developed a test for measuring melanin synthesis by using a colorimetric assay on the murine melanoma cell line B16-F10. This assay enables to test the depigmenting power of active ingredients.

[2] = Stability of chalcone (cyclization to flavanone); type: physicochemical; conditions: for stability (cyclization to flavanone): purified / pure form
Description: More preferably, ? is a double bond, R1=H and R2=OH, that is to say the extract according to the invention is enriched with gymnochalcone. […] In fact, cyclization of chalcones to flavanone, upon addition of a hydroxyl group on 1,4-position in the carbonyl group by a Michael type reaction, which brings about instability of the chalcones, is not observed in this case.
Thus preferably gymnochalcone will be used in the form of an extract of Helichrysum gymnocephalum.

IC50 [1] [µM] | stability (cyclization to flavanone) [2] | Structure (SMILES) | other results
 |  | O=C(/C=C/c1ccccc1)c1c(O)cc(O)cc1O [2′,4′,6′-Trihydroxychalcone (II), 2′,4′,6′-Trihydroxychalcone] | IC50 (fungal tyrosinase): 120 µM
 |  | COc1cc(O)c(C(=O)CCc2ccccc2)c(O)c1[C@H]1C=C(C)CC[C@@H]1C(C)C [(−)-Methyl-linderatin] | anti-plasmodial activity (plasmodial): anti-plasmodial activity
 |  | CC1=C[C@H](c2c(O)cc(O)c(C(=O)CCc3ccccc3)c2O)[C@H](C(C)C)CC1 [(−)-linderatin] | cytotoxicity (cancer cell line (lung)): exhibited cytotoxicity
158 |  | OC[C@H]1O[C@@H](Oc2ccc(O)cc2)[C@H](O)[C@@H](O)[C@@H]1O [Arbutin, reference compound] | 
17 | cyclization is observed | CC1=CC(c2c(O)cc(O)c(C(=O)/C=C/c3ccccc3)c2O)C(C(C)(C)O)CC1 (stereo not shown) [Gymnochalcone, gymnochalcone] | stability in time ([2]; in the extract of Helichrysum gymnocephalum): stable in time
31 |  | COc1ccc(O)cc1 [Hydroquinone monomethyl ether, reference compound] | 
2400 |  | O=c1cc(CO)occ1O [Kojic acid, reference compound] | 
5 | stable in such form | CC1=CC(c2c(O)cc(O)c(C(=O)CCc3ccccc3)c2O)C(C(C)C)CC1 (stereo not shown) [Linderatin, linderatin] | 
6 | stable in such form | COc1cc(O)c(C(=O)CCc2ccccc2)c(O)c1C1C=C(C)CCC1C(C)C (stereo not shown) [Methyllinderatin, methyllinderatin] | 
